# Non-standard residues stand in square brackets, D forms with d. No end group written: not given here. *: point of attachment. Phe(4-F) = N[C@@H](Cc1ccc(F)cc1)C(=O)O; Arg(Me) = CNC(=N)NCCC[C@H](N)C(=O)O; Butyryl = CCCC(=O)*; Bz = O=C(c1ccccc1)*; GABA = NCCCC(=O)O; azaGly = NNC(=O)O; βAla = NCCC(=O)O
# Assays:
# hOT7T175 [1] = target: T1, hOT7T175 (Homo sapiens, UniProt Q969F8); experiment: Intracellular Ca ion level-increasing activity using FLIPR (180 seconds; specific activity to Metastin (1-54)); type: cell-based; conditions: hOT7T175/CHO, change in intracellular calcium ion level for 180 seconds, Tables 21-23
# T1 construct: expressed in transfected cells
# hOT7T175 [2] = target: T2, hOT7T175 (Homo sapiens, UniProt Q969F8, L364H); type: cell-based; conditions: hOT7T175/CHO, FLIPR, evaluation for 40 seconds after initiation of the reaction
# T2 construct: expressed in transfected cells
# Procedure: The intracellular Ca ion level-increasing activity was measured using FLIPR as in TEST EXAMPLE 2.
# [3] = Blood testosterone level decreasing effect in mature male rat (2 mM peptide solution, ALZET osmotic pump); type: in vivo; conditions: 2 mM peptide solution in distilled water, ALZET osmotic pump s.c., 6 days, Tables 28 and 29
# Procedure: (§1) This peptide solution was filled in 5 ALZET osmotic pumps (Model 2001, 0.2 ml in volume, release rate: 0.001 ml/hr, DURECT Corporation). The ALZET pumps filled with the peptide solution were implanted subcutaneously in 5 CD(SD)IGS male rats of 9 weeks old after birth (Charles River Japan, Inc.) on the back under ether anesthesia by one pump for one animal. For negative control, distilled water (Otsuka Pharmaceutical Co., Ltd.) was filled in 5 ALZET osmotic pumps, which were similarly implanted in 5 male CD(SD)IGS rats (Charles River Japan, Inc.), respectively. These pump-implanted rats were fed for 6 days under normal feeding conditions. After weighing, the animal was decapitated to collect blood. After 0.03 ml/ml blood of aprotinin solution (Trasylol, Bayer) containing 0.1 mg/ml EDTA.2Na was added to blood, the mixture was centrifuged at 1,800 G for 25 minutes to isolate/recover plasma. From the plasma obtained, 0.05 ml was applied to radioimmunoassay (DPC.Total Testosterone Kit, Diagnostic Products Corporation) to measure the plasma testosterone level of each rat. The value below the limit of measurement (0.04 ng/ml of plasma level) in radioimmunoassay was treated as 0. A mean value of the testosterone levels from 5 rats receiving the peptide was calculated and a relative value (percent) of the mean value to a mean value from 5 rats receiving distilled water.
# [4] = Blood testosterone level decreasing effect in mature male rat (0.1 mM peptide solution); type: in vivo
# Procedure: as §1
# In a manner similar to TEST EXAMPLE 14, evaluation was made using 0.1 mM peptide solution and a part of the results obtained are shown in TABLE 30.
# [5] = Action of reducing testosterone level in blood in mature male rat (1 mM peptide in 50% DMSO, ALZET osmotic pump); type: in vivo; conditions: 1 mM peptide in 50% DMSO aqueous solution, ALZET osmotic pump s.c., six days
# Procedure: The peptide was encapsulated in five ALZET osmotic pump (Model 2001, 0.2 ml of volume, releasing rate 0.001 ml/hr, DURECT Corporation). The ALZET pumps encapsulated with the peptide solution were implanted to dorsal subcutaneous of five male CD (SD) IGS rat at nine weeks age (Charles River Japan, Inc.) anesthesized with ether for one pump to one rat. Separately, for negative controls, the ALZET osmotic pumps encapsulated with distilled water were implanted to five male CD (SD) IGS rat (Charles River Japan, Inc.) The rats were bred for six days under the normal conditions. After weighing, blood was collected by decapitation. To 1 ml of blood, 0.03 ml of aprotinin (Trasylol, Byer) solution containing 0.1 g/ml EDTA 2Na was added. The plasma was isolated by centrifugation at 1,800×g for 25 minutes and collected. The thus obtained plasma, 0.05 ml was effected by radioimmunoassay. (DPC Total Testosterone Kit, Diagnostic Products Corporation) to measure testosterone level in blood of each rat. The value beneath measuring limit of radioimmunoassay (0.04 ng/ml as concentration of plasma) was treated as zero. The mean values for testosterone level of five rats, to which the peptide was given, was calculated and the relative value (percentage) for the mean values of testosterone level of five rats, to which distilled watrer was given, was estimated.
# T2 sequence (Q969F8 whole entry L364H): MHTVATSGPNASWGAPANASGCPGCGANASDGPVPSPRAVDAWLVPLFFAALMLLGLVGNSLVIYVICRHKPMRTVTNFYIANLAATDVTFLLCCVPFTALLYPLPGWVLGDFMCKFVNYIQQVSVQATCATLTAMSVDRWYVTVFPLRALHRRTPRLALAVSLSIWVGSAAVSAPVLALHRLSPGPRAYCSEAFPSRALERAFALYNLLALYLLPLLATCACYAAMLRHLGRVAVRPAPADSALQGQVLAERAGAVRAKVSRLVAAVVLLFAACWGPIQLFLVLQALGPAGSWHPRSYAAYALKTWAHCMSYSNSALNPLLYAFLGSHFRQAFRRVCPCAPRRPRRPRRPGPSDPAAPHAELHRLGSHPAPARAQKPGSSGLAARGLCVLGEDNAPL
# T1 sequence (Q969F8 whole entry L364H): as above
Substance,intracellular Ca ion level-increasing activity [specific activity to Metastin (1-54)] (hOT7T175 [1]),Specific Act. (EC50/MS10 EC50) (hOT7T175 [2]),Teststerone level in Blood [3] [%],Teststerone level in Blood [4] [%],Testosterone level in Blood [5] [%]
3-(3-Indolyl)propionyl-Phe-AzaGly-Leu-Arg(Me)-Trp-NH2 [Compound No. 354],10,0.8,43,,
3-Phenylpropionyl-Asn-Hyp-Phe-AzaGly-Leu-Arg(Me)-Trp-NH2 [Compound No. 517],,1.0,79,,
Ac-D-Arg-Acp-D-Tyr-D-Trp-Asn-Thr-Phe-AzaGly-Leu-Arg(Me)-Trp-NH2 [Compound No. 551],,1.2,,8,
Ac-D-Tyr-D-Pya(4)-Asn-Ser-Phe-AzaGly-Leu-Arg(Me)-Phe-NH2 [Compound No. 516],,3.7,,3,
Ac-D-Tyr-D-Pya(4)-Asn-Thr-Phe-AzaGly-Leu-Arg(Me)-Trp-NH2 [Compound No. 562],,1.0,,11,
Ac-[dY][dW]NSF[azaGly]L[Arg(Me)]W-NH2 [Compound No. 558],,0.4,,2,
Ac-[dY][dW]NTF[azaGly]L[Arg(Me)]F-NH2 [Compound No. 571],,1.2,,17,
Ac-[dY][dW]NTF[azaGly]L[Arg(Me)]W-NH2 [Compound No. 550],,0.7,,2,
Ac-[dY][dW]NVF[azaGly]L[Arg(Me)]W-NH2 [Compound No. 564],,0.5,,66,2
Arg-Acp-D-Tyr-D-Pya(4)-Asn-Ser-Phe-AzaGly-Leu-Arg(Me)-Trp-NH2 [Compound No. 538],,3.3,,45,
Butyryl-[dY][dW]NTF[azaGly]L[Arg(Me)]W-NH2 [Compound No. 567],,0.8,,86,
Bz-NS[Phe(4-F)][azaGly]L[Arg(Me)]W-NH2 [Compound No. 545],,1.1,,37,2
Bz-NT[Phe(4-F)][azaGly]L[Arg(Me)]W-NH2 [Compound No. 523],,1.1,,72,
Bz-[dY][dW]NTF[azaGly]L[Arg(Me)]W-NH2 [Compound No. 565],,0.6,,80,
Cyclopropanecarbonyl-D-Tyr-D-Trp-Asn-Thr-Phe-AzaGly-Leu-Arg(Me)-Trp-NH2 [Compound No. 566],,0.8,,89,
D-Dap-Acp-D-Tyr-D-Trp-Asn-Thr-Phe-AzaGly-Leu-Arg(Me)-Trp-NH2 [Compound No. 552],,2.3,,21,
D-Nle-Acp-D-Tyr-D-Trp-Asn-Thr-Phe-AzaGly-Leu-Arg(Me)-Trp-NH2 [Compound No. 553],,1.9,,39,
D-Tyr-D-Pya(4)-Asn-Ser(Ac)-Phe-AzaGly-Leu-Arg(Me)-Trp-NH2 [Compound No. 547],,2.5,,65,
GuAmb-Phe-AzaGly-Leu-Arg(Me)-Trp-NH2 [Compound No. 334],,,40,,
[dR][GABA][dY][dW]NTF[azaGly]L[Arg(Me)]W-NH2 [Compound No. 555],,1.5,,73,2
[dR][βAla][dY][dW]NTF[azaGly]L[Arg(Me)]W-NH2 [Compound No. 554],,1.3,,52,
[dY][dW]NSF[azaGly]L[Arg(Me)]W-NH2 [Compound No. 540],,0.7,,55,

# From patent publication US8778871B2 (Takeda Pharmaceutical Company Limited, priority 2004, dated 2014)
